Reference: PMC10731806, “Characterization of an iPSC-based barrier model for blood-brain barrier investigations using the SBAD0201 stem cell line” (Fluids and Barriers of the CNS, 2023)
Each block holds one compound with its values, some of them ahead of it.

Assays:
GLUT-1 = target: T1, GLUT-1 (Homo sapiens, UniProt P11166); assay: Apical-to-basolateral transport of GLUT-1 substrates with and without GLUT-1 inhibitors; format: cell-based; settings: A-B, glucose-free HBSS, one hour; for effect on apparent permeability of 6-NBDG: 6-NBDG 100 µM; for effect on apparent permeability of [^3H]-glucose: [3H]-glucose 20 nM
T1 construct: endogenous in cells; host or cells: SBAD0201 hiPSC-derived brain capillary endothelial-like cells (BCECs)
T1 sequence (P11166 1-492): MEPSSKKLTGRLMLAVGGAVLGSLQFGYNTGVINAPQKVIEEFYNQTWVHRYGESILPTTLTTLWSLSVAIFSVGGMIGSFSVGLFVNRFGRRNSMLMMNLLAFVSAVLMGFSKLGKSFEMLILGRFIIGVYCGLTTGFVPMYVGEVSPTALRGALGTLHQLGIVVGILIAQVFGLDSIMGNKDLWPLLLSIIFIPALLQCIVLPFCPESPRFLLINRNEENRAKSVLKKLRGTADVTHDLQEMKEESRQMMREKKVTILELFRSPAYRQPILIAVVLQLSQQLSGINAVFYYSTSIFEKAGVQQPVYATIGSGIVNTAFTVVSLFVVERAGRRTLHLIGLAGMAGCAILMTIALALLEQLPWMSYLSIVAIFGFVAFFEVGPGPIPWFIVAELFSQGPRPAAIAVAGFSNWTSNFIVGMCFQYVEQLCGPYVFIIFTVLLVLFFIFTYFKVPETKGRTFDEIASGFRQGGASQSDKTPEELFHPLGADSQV
Description: (§1) HBSS without glucose was used for transport assays involving [^3H]-glucose and 6-NBDG, whereas HBSS^+ was used for [^3H]-L-leucine. […] The function of GLUT-1 and LAT-1 were evaluated by co-application of the GLUT-1 inhibitors BAY876 (1 and 10 μM) and phloretin (100 μM) and the LAT-1 inhibitors JPH203 (10 μM) and BCH (100 μM). The inhibitors were added to the transport buffer in both chambers 15 min before the addition of the substrates.

GLUT1 = settings: cited from earlier work
LAT-1 = target: T2, LAT-1 (Homo sapiens, UniProt Q01650); assay: Apical-to-basolateral transport of [3H]-L-leucine with and without LAT-1 inhibitors; format: cell-based; settings: [3H]-L-leucine 9.3 nM, A-B, HBSS+, one hour
T2 construct: endogenous in cells; host or cells: SBAD0201 hiPSC-derived brain capillary endothelial-like cells (BCECs)
T2 sequence (Q01650 whole entry): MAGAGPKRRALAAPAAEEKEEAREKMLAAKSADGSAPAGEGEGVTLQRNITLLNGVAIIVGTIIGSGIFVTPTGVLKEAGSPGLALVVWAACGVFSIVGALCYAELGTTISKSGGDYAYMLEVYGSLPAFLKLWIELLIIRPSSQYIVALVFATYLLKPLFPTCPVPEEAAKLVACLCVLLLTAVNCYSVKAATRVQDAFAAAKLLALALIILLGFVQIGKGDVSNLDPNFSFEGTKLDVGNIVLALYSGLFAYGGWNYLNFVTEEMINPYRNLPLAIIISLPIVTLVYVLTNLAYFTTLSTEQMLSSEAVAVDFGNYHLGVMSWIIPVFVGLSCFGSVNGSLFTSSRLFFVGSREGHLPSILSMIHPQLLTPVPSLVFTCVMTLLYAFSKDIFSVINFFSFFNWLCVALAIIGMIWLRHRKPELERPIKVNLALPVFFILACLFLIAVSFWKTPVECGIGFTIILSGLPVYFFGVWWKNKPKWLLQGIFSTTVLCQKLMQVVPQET
T2 sequence (P08195 102-630 partner): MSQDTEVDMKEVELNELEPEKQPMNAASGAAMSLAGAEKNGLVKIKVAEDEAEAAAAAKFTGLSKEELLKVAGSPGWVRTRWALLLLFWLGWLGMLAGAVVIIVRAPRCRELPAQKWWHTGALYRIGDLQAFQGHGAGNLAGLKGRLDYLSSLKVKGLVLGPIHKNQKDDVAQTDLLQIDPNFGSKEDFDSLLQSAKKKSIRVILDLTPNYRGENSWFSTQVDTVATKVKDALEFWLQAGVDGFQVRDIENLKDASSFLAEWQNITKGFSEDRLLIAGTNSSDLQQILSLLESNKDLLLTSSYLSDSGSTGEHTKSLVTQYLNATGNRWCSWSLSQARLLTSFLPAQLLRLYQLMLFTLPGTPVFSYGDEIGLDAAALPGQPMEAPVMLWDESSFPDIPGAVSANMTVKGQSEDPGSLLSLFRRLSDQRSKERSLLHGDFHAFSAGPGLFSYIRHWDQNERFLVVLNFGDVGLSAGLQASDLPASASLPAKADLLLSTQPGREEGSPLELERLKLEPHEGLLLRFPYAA
Description: as §1

P-gp = assay: Bidirectional transport and uptake of P-gp substrates with and without zosuquidar; settings: for vectorial transport (bidirectional): EC-/- medium

effect on apparent permeability of 6-NBDG (GLUT-1; 100 µM phloretin): sensitive to the addition
effect on apparent permeability of [^3H]-glucose (GLUT-1; 100 µM phloretin): sensitive to the addition
Compound: O=C(CCc1ccc(O)cc1)c1c(O)cc(O)cc1O [phloretin]

vectorial transport (bidirectional) (P-gp; rhodamine 123 5 µM, two hours): No vectorial transport
Compound: COC(=O)c1ccccc1-c1c2ccc(=N)cc-2oc2cc(N)ccc12 [rhodamine 123]

Further lines, the compound ahead of its results:

Compound: Cc1c(NC(=O)c2cc(C(N)=O)nc3cc(F)ccc23)c(C(F)(F)F)nn1Cc1ccc(C#N)cc1 [BAY876]
effect on apparent permeability of 6-NBDG (GLUT-1; 10 µM BAY876): sensitive to the addition
effect on apparent permeability of [^3H]-glucose (GLUT-1; 10 µM BAY876): sensitive to the addition
selectivity for GLUT1 relative to GLUT2, GLUT3, GLUT4 (GLUT1): at least 130 fold

Compound: NC1(C(=O)O)CC2CCC1C2 (centres unmarked) [BCH]
effect on transport of [3H]-L-leucine (LAT-1; BCH 100 µM): significantly decreased

Compound: Nc1cc(COc2c(Cl)cc(C[C@H](N)C(=O)O)cc2Cl)c2oc(-c3ccccc3)nc2c1 [JPH203]
effect on transport of [3H]-L-leucine (LAT-1; JPH203 10 µM): significantly decreased

Compound: C[C@H]1O[C@@H](O[C@H]2[C@@H](O)C[C@H](O[C@H]3[C@@H](O)C[C@H](O[C@H]4CC[C@@]5(C)[C@H](CC[C@@H]6[C@@H]5C[C@@H](O)[C@]5(C)[C@@H](C7=CC(=O)OC7)CC[C@]65O)C4)O[C@@H]3C)O[C@@H]2C)C[C@H](O)[C@@H]1O [[^3H]-digoxin, digoxin]
vectorial transport (bidirectional) (P-gp; [3H]-digoxin 38.2 nM, two hours): No vectorial transport

Compound: O[C@@H](COc1cccc2ncccc12)CN1CCN([C@@H]2c3ccccc3[C@@H]3[C@H](c4ccccc42)C3(F)F)CC1 [zosuquidar]
effect on transport of rhodamine 123 and [3H]-digoxin (P-gp; zosuquidar 0.4 µM, both chambers, two hours): neither the transport nor the uptake of the substrates was affected
effect on uptake of rhodamine 123 and [3H]-digoxin (P-gp; zosuquidar 0.4 µM, uptake probed after the transport study): neither the transport nor the uptake of the substrates was affected
